According to ChEMBL document CHEMBL6121047, “Design, Synthesis, and Evaluation of Selective PDE4 Inhibitors for the Therapy of Pulmonary Injury” (J Med Chem, 2025):
The source made the active and inactive calls. The calls are words filed in the database; no cut-off is given here.

Columns and labels:
[1] = molecular target: 3',5'-cyclic-AMP phosphodiesterase 4B (Homo sapiens, UniProt Q07343); test: Inhibition of recombinant full length PDE4B (unknown origin) using FAM-cAMP as substrate at 1 uM preincubated with compound for compound for 15 mins followed by substrate addition and measured after 30 mins by Envision multilabel reader analysis relative to control; details: time 45.0 min
HepG2 = test: Cytotoxicity against human HepG2 cells assessed as reduction in cell viability incubated for 24 hrs by CCK-8 assay; assay type: toxicity, cell-based; details: hepg2, 24 h
RAW264.7 = test: Cytotoxicity against mouse RAW264.7 cells assessed as reduction in cell viability incubated for 24 hrs by CCK-8 assay; assay type: toxicity, cell-based; details: raw264.7, 24 h
HEK-293T = test: Cytotoxicity against human HEK293T cells assessed as reduction in cell viability incubated for 24 hrs by CCK-8 assay; assay type: toxicity, cell-based; design: concentration or dose not given beside the values
Phosphodiesterase 4 = Phosphodiesterase 4 (Homo sapiens, UniProt P27815+Q08499+Q07343+Q08493); test: Inhibition of PDE4 (unknown origin); assay type: protein assay
[2] = Inhibition of PDE3 (unknown origin); design: species or system Homo sapiens
Mus musculus [3] = test: (§1) Anti-inflammatory activity against cigarette-smoke/LPS-induced COPD male C57BL/6 mouse model assessed as reduction in TNF-alpha level in BALF at 5 mg/kg pretreated with cigarette smoke exposure for 21 weeks with subsequent LPS induction twice on the first and 15th day followed by compound administration every day via gavage for 4 weeks; assay type: functional, organism-based
Mus musculus [4] = test: as §1, with “reduction in bronchiole thickness at 5” for “reduction in TNF-alpha level in BALF at 5”, “4 weeks by H and E staining based microscopic analysis” for “4 weeks”; assay type: functional, organism-based
Mus musculus [5] = test: as §1, with “IL-6” for “TNF-alpha”; assay type: functional, organism-based
Mus musculus [6] = test: Anti-inflammatory activity against LPS-induced acute lung injury male BALB/c mouse model assessed as enlarged bronchiole tubes in lung at 4 mg/kg administered once a day via gavage for 7 days followed by LPS stimulation and measured after 24 hrs by H and E staining based microscopic analysis; assay type: functional, organism-based; details: time 192.0 hrs
Mus musculus [7] = test: Anti-inflammatory activity against cigarette-smoke/LPS-induced COPD male C57BL/6 mouse model assessed as decrease in collagen formation at 5 mg/kg pretreated with cigarette smoke exposure for 21 weeks with subsequent LPS induction twice on the first and 15th day followed by compound administration every day via gavage for 4 weeks by masson staining based microscopic analysis; assay type: functional, organism-based
Mus musculus [8] = test: Anti-inflammatory activity against LPS-induced acute lung injury male BALB/c mouse model assessed as relaxation of alveolar in lung at 4 mg/kg administered once a day via gavage for 7 days followed by LPS stimulation and measured after 24 hrs by H and E staining based microscopic analysis; assay type: functional, organism-based; details: time 192.0 hrs
Mus musculus [9] = test: Antifibrotic activity against LPS-induced acute lung injury male BALB/c mouse model assessed as decrease in collagen deposition at 4 mg/kg administered once a day via gavage for 7 days followed by LPS stimulation and measured after 24 hrs by masson staining based microscopic analysis; assay type: functional, organism-based; details: time 192.0 hrs
Mus musculus [10] = test: Anti-inflammatory activity against LPS-induced acute lung injury male BALB/c mouse model assessed as restoration of alveolar septa in lung at 4 mg/kg administered once a day via gavage for 7 days followed by LPS stimulation and measured after 24 hrs by H and E staining based microscopic analysis; assay type: functional, organism-based; details: time 192.0 hrs
Mus musculus [11] = test: as §1, with “MMP9” for “TNF-alpha”; assay type: functional, organism-based
Mus musculus [12] = test: Anti-inflammatory activity against LPS-induced acute lung injury male BALB/c mouse model assessed as restoration of alveolar cavities in lung at 4 mg/kg administered once a day via gavage for 7 days followed by LPS stimulation and measured after 24 hrs by H and E staining based microscopic analysis; assay type: functional, organism-based; details: time 192.0 hrs

Chain of 3',5'-cyclic-AMP phosphodiesterase 4B (Q07343 whole entry): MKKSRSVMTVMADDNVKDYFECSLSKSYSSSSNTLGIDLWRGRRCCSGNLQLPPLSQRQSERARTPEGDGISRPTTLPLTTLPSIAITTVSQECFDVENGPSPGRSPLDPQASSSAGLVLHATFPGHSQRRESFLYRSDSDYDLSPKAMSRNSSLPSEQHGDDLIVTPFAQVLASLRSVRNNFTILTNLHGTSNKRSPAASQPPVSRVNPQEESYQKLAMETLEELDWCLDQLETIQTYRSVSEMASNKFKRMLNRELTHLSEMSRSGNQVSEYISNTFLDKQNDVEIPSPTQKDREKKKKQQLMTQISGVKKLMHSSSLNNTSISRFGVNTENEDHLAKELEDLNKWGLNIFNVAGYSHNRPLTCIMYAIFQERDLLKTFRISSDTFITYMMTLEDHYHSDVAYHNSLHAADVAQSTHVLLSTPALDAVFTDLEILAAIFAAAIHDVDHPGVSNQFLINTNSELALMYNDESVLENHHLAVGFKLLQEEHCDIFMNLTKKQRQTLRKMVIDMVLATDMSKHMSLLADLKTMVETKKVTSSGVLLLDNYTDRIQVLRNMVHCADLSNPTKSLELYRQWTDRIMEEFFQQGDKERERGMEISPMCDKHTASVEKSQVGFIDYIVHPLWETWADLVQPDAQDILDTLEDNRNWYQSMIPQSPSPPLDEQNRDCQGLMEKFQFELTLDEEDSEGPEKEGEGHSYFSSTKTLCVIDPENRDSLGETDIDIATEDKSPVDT

Row | SMILES | inhibition [1] | also measured
1 | O=S(=O)(c1ccccc1)n1cc(-c2ccc3[nH]c(-c4ccc(OC(F)F)c(OCC5CC5)c4)nc3c2)c2ccccc21 | 25.8% | –
2 | O=C(NCc1cnccn1)c1cccc2[nH]c(-c3ccc(OC(F)F)c(OCC4CC4)c3)nc12 | 93.3% | –
3 | O=C(Nc1ccc2ncsc2c1)c1cccc2[nH]c(-c3ccc(OC(F)F)c(OCC4CC4)c3)nc12 | 79.3% | –
4 | O=C(O)c1ccc(NNC(=O)c2cccc3[nH]c(-c4ccc(OC(F)F)c(OCC5CC5)c4)nc23)cc1 | 96.2% | Activity (HepG2): Non-toxic; Activity (RAW264.7): Non-toxic
5 | O=C(Nc1ccncc1)c1ccc2[nH]c(-c3ccc(OC(F)F)c(OCC4CC4)c3)nc2c1 | 62.3% | –
6 | O=C(Nc1ccncc1)c1cccc2[nH]c(-c3ccc(OC(F)F)c(OCC4CC4)c3)nc12 | 65.6% | –
7 | O=C(ON1C(=O)CCC1=O)c1ccc2[nH]c(-c3ccc(OC(F)F)c(OCC4CC4)c3)nc2c1 | 62.2% | –
8 | Cc1nc2ccc(NC(=O)c3cccc4[nH]c(-c5ccc(OC(F)F)c(OCC6CC6)c5)nc34)cc2s1 | 56.8% | –
9 | O=C(Nc1nc2ccccc2s1)c1cccc2[nH]c(-c3ccc(OC(F)F)c(OCC4CC4)c3)nc12 | 53.1% | –
10 | O=C(NCc1ccccc1)c1cccc2[nH]c(-c3ccc(OC(F)F)c(OCC4CC4)c3)nc12 | 92.2% | Activity (HEK-293T): > 70%; Activity (RAW264.7): Non-toxic
11 | COc1cc2c(cc1OC)-c1c/c(=N\c3c(C)cc(C)cc3C)n(CCNC(N)=O)c(=O)n1CC2 [ENSIFENTRINE] | – | IC50 (Phosphodiesterase 4): 1479 nM; IC50 [2]: 0.4 nM
12 | O=C(NCc1c(F)cccc1F)c1cccc2[nH]c(-c3ccc(OC(F)F)c(OCC4CC4)c3)nc12 | 94.4% | Activity (HEK-293T): > 70%; Activity (RAW264.7): Non-toxic
13 | O=C(NCc1cc(F)ccc1F)c1cccc2[nH]c(-c3ccc(OC(F)F)c(OCC4CC4)c3)nc12 | 88.8% | –
14 | O=C(NCc1ccc(F)cc1F)c1cccc2[nH]c(-c3ccc(OC(F)F)c(OCC4CC4)c3)nc12 | 94% | Activity (HEK-293T): > 70%; Activity (RAW264.7): Non-toxic
15 | O=C(NCc1ccc(F)c(F)c1)c1cccc2[nH]c(-c3ccc(OC(F)F)c(OCC4CC4)c3)nc12 | 90.6% | Activity (HEK-293T): > 70%; Activity (RAW264.7): Non-toxic
16 | O=C(NCc1ccc2ccccc2c1)c1cccc2[nH]c(-c3ccc(OC(F)F)c(OCC4CC4)c3)nc12 | 90.1% | Activity (HepG2): Non-toxic; Activity (RAW264.7): Non-toxic
17 | Cn1cc(NC(=O)c2cccc3[nH]c(-c4ccc(OC(F)F)c(OCC5CC5)c4)nc23)cn1 | 93.6% | Activity (HepG2): Non-toxic; Activity (RAW264.7): Non-toxic
18 | O=C(Nc1ccc2[nH]ccc2c1)c1cccc2[nH]c(-c3ccc(OC(F)F)c(OCC4CC4)c3)nc12 | 93.5% | Activity (HepG2): Non-toxic; Activity (RAW264.7): Non-toxic
19 | COc1ccc(-c2nc3cc(C(=O)NCc4ncccn4)ccc3[nH]2)cc1OCC1CC1 | 42.5% | –
20 | COc1ccc(CNC(=O)c2cccc3[nH]c(-c4ccc(OC(F)F)c(OCC5CC5)c4)nc23)cn1 | 93.4% | Activity (RAW264.7): Non-toxic
21 | COc1ccc(-c2nc3cc(C(=O)Nc4ccc5ncsc5c4)ccc3[nH]2)cc1OCC1CC1 | 49.2% | –
22 | Cn1ccc(NC(=O)c2cccc3[nH]c(-c4ccc(OC(F)F)c(OCC5CC5)c4)nc23)n1 | 94.1% | –

Row | SMILES | inhibition [1] | also measured
23 | O=C(Nc1cccnc1)c1cccc2[nH]c(-c3ccc(OC(F)F)c(OCC4CC4)c3)nc12 | 90.1% | Activity (HepG2): Non-toxic; Activity (RAW264.7): Non-toxic
24 | O=C(Nc1ccccc1)c1cccc2[nH]c(-c3ccc(OC(F)F)c(OCC4CC4)c3)nc12 | 83.8% | –
25 | O=C(NCc1cccnc1)c1cccc2[nH]c(-c3ccc(OC(F)F)c(OCC4CC4)c3)nc12 | 91.1% | Activity (RAW264.7): Non-toxic
26 | O=C(NCc1ncccn1)c1ccc2[nH]c(-c3ccc(OC(F)F)c(OCC4CC4)c3)nc2c1 | 62.3% | –
27 | O=C(NCC1CCOCC1)c1cccc2[nH]c(-c3ccc(OC(F)F)c(OCC4CC4)c3)nc12 | 94.6% | –
28 | O=C(ON1C(=O)CCC1=O)c1cccc2[nH]c(-c3ccc(OC(F)F)c(OCC4CC4)c3)nc12 | 91.5% | –
29 | COc1ccc(-c2nc3cc(C(=O)NCc4ccc(F)cc4F)ccc3[nH]2)cc1OCC1CC1 | 23.3% | –
30 | O=C(NCc1ccccn1)c1cccc2[nH]c(-c3ccc(OC(F)F)c(OCC4CC4)c3)nc12 | 93.9% | Activity (RAW264.7): Non-toxic
31 | O=C(Nc1c(Cl)cncc1Cl)c1ccc(OC(F)F)c(OCC2CC2)c1 | – | Activity (Mus musculus [3]): Active; Activity (Mus musculus [4]): Active; Activity (Mus musculus [5]): Active; Activity (Mus musculus [6]): Active; Activity (Mus musculus [7]): Active; Activity (Mus musculus [8]): Active; Activity (Mus musculus [9]): Active; Activity (Mus musculus [10]): Active; Activity (Mus musculus [11]): Active; Activity (Mus musculus [12]): Active
32 | O=C(NCc1ncccn1)c1cccc2[nH]c(-c3ccc(OC(F)F)c(OCC4CC4)c3)nc12 | 95.5% | –
33 | N#Cc1ccc(NNC(=O)c2ccc3[nH]c(-c4ccc(OC(F)F)c(OCC5CC5)c4)nc3c2)cc1 | 76.2% | –
34 | O=C(Nc1ccc2ncsc2c1)c1cccc2[nH]c(-c3ccc(OC(F)F)c(OC(F)F)c3)nc12 | 70.2% | –
35 | O=C(NCc1ccccc1F)c1cccc2[nH]c(-c3ccc(OC(F)F)c(OCC4CC4)c3)nc12 | 85.2% | –
36 | O=C(NCc1cccc(F)c1F)c1cccc2[nH]c(-c3ccc(OC(F)F)c(OCC4CC4)c3)nc12 | 91.9% | Activity (HEK-293T): > 70%; Activity (RAW264.7): Non-toxic
37 | O=C(NCc1c(F)cc(F)cc1F)c1cccc2[nH]c(-c3ccc(OC(F)F)c(OCC4CC4)c3)nc12 | 88.6% | –
38 | FC(F)Oc1ccc(-c2nc3cc(-c4ccncc4)ccc3[nH]2)cc1OCC1CC1 | 81.4% | –
39 | O=C(Nc1nccs1)c1cccc2[nH]c(-c3ccc(OC(F)F)c(OC(F)F)c3)nc12 | 68% | –
40 | COc1ccc(-c2ccc3[nH]c(-c4ccc(OC(F)F)c(OCC5CC5)c4)nc3c2)cc1OC | 80.9% | –
41 | O=C(NCc1ccc(F)cc1F)c1ccc2[nH]c(-c3ccc(OC(F)F)c(OCC4CC4)c3)nc2c1 | 24.8% | –
42 | O=C(NCc1c(F)cc(F)cc1F)c1cccc2[nH]c(-c3ccc(OC(F)F)c(OC(F)F)c3)nc12 | 73.3% | –
43 | O=C(Nc1ccccn1)c1cccc2[nH]c(-c3ccc(OC(F)F)c(OCC4CC4)c3)nc12 | 81.6% | –
44 | O=C(NCc1cc(F)cc(F)c1)c1cccc2[nH]c(-c3ccc(OC(F)F)c(OCC4CC4)c3)nc12 | 82.4% | –
